Results: US20130315843A1, “COMPOSITION FOR REDUCTION OF TRPA1 AND TRPV1 SENSATIONS” (priority 2012, published 2013)
Where two headings read alike, the source gives them in different places.

Legend:
human TRPA1 [1] = target: T1, human TRPA1 (Homo sapiens, UniProt O75762); experiment: FLIPR Ca2+ assay, reduction of hydrogen peroxide activation of TRPA1; assay type: cell-based; set-up: expressed in transfected cells; conditions: for inhibition at 100 µM: read-out: % Reduction of Hydrogen Peroxide TRPA1 Activation
Experimental: After centrifugation, a pellet of cells was formed in the bottom of the tube separating them from the supernatant solution.
(§1) The pelleted cells were re-suspended in 10 ml assay buffer and 90 μl aliquots (˜50,000 cells) per well delivered to a 96-well assay plate containing 10 μl of test compounds ([…]) or buffer control and incubated at room temperature for 30 minutes.

human TRPV1 [2] = target: T2, human TRPV1 (Homo sapiens, UniProt Q8NER1); experiment: FLIPR Ca2+ assay, reduction of hydrogen peroxide activation of TRPV1; assay type: cell-based; set-up: expressed in transfected cells; conditions: for % Reduction of Hydrogen Peroxide TRPV1 Activation / inhibition at 400 µM: antagonist 400 μM against 500 μM hydrogen peroxide; for Ca++ counts: with compound; for inhibition at 100 µM: antagonist 100 μM against 500 μM hydrogen peroxide
Experimental: (§2) Cells were detached with addition of 10 ml of PBS (phosphate buffered saline) by hand shaking gently. Cells were transferred to a 50 ml tube and centrifuged at 850 rpm for 3 minutes to remove PBS.
The pelleted cells were re-suspended in 10 ml assay buffer and 90 μl aliquots (˜50,000 cells) per well delivered to a 96-well assay plate containing 10 μl of test compounds (1 mM in assay buffer, […]) or buffer control and incubated at room temperature for 30 minutes.

human TRPV1 [3] = target: T2, human TRPV1; experiment: FLIPR Ca2+ assay, reduction of capsaicin activation of TRPV1; assay type: cell-based; set-up: expressed in transfected cells; conditions: for Ca++ counts: with compound
Experimental: as §2, §1

human TRPV1 [4] = target: T2, human TRPV1; experiment: FLIPR Ca2+ assay, reduction of L-Menthol activation of TRPV1
human TRPA1 [5] = target: T1, human TRPA1; experiment: FLIPR Ca2+ assay, block of AITC activation of TRPA1; assay type: cell-based; set-up: expressed in transfected cells; conditions: 100 μM antagonist
Experimental: Intracellular Ca^++ levels were measured using cell based assays as described for EXAMPLES 1, 2, and 3.

human TRPA1 [6] = target: T1, human TRPA1; experiment: FLIPR Ca2+ assay, reduction of L-Menthol activation of TRPA1; conditions: 100 μM antagonist vs 1 mM L-Menthol
[7] = compound 100 μM against 200 μM hydrogen peroxide, Sets 1-4

T1 sequence (O75762 whole entry): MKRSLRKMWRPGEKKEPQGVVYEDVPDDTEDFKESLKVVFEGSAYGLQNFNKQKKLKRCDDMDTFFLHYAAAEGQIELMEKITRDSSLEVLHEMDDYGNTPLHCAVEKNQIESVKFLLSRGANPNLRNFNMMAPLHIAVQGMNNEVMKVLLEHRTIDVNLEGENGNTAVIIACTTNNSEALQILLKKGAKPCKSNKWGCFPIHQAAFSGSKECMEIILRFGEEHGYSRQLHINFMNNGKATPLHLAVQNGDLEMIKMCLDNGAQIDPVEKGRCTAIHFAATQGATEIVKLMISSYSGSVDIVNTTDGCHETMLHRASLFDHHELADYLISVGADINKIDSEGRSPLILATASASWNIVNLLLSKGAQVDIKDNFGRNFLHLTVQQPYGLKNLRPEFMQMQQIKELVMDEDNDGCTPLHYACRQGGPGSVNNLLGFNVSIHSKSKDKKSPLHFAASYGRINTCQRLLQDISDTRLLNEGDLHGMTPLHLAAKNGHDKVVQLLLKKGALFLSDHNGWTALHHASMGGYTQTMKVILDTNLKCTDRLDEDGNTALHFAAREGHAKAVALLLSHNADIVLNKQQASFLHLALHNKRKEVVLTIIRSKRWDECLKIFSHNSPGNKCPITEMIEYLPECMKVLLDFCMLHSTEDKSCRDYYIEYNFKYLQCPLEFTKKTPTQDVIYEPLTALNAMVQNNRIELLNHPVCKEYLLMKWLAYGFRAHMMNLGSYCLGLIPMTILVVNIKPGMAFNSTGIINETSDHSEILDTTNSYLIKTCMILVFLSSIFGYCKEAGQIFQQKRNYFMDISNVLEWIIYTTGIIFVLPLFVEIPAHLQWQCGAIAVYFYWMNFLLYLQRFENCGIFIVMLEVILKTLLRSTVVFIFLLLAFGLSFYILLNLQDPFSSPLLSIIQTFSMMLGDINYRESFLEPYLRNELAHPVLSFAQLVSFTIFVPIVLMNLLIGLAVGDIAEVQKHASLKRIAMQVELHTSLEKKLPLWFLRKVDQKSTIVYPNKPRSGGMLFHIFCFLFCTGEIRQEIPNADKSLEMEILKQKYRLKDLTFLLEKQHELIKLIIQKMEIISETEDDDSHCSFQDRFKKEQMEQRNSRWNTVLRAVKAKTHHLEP
T2 sequence (Q8NER1 whole entry): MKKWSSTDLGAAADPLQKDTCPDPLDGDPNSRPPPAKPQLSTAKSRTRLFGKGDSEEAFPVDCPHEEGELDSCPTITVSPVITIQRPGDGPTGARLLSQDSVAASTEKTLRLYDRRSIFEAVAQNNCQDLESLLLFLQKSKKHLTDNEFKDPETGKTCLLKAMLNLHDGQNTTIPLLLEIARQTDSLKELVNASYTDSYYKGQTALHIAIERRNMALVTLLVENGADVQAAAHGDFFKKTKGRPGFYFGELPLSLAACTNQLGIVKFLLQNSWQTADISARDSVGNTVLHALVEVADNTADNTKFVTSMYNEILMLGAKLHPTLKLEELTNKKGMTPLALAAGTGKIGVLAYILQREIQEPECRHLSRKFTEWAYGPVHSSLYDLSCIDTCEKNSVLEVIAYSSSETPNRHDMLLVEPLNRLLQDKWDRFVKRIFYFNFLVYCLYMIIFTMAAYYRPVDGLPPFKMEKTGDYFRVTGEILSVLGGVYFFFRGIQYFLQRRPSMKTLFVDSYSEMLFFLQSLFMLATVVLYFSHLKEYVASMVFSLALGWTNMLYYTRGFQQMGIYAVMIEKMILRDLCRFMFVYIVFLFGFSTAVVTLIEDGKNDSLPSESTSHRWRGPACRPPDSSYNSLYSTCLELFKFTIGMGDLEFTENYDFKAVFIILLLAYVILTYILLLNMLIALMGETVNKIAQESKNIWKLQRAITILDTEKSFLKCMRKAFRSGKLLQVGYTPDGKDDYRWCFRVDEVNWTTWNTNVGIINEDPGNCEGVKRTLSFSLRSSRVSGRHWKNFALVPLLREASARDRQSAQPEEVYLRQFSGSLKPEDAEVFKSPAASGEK

SMILES | Ca++ counts (human TRPV1 [2]; Dose 4000, 500 uM H2O2) | Ca++ counts (human TRPV1 [3]; Dose 4000, 350 nM Capsaicin) | inhibition at 100 µM (human TRPV1 [2]) | Ca++ counts (human TRPV1 [2]; Dose 1000, 500 uM H2O2) | Ca++ counts (human TRPV1 [3]; Dose 1000, 350 nM Capsaicin) | inhibition at 400 µM (human TRPV1 [2]) | also measured
Cn1cccc1C=O [1-Methyl-2-pyrole carboxaldehyde] | 380 | 11516 |  |  |  |  | reduction of hydrogen peroxide activation of TRPA1, in words (human TRPA1 [1]): reduced hydrogen peroxide activation of TRPA1; Block of hydrogen peroxide activation of TRPA1 (human TRPA1 [1]; 400 μM antagonist vs 500 μM hydrogen peroxide): BLOCK ONLY H2O2/TRPA1; % Reduction of Hydrogen Peroxide TRPA1 Activation (human TRPA1 [1]; antagonist 400 μM against 200 μM hydrogen peroxide): 42%; reduction of hydrogen peroxide activation of TRPV1, in words (human TRPV1 [2]): hydrogen peroxide reduction of TRPV1; % inhibition of TRPV1 activation by 500 uM H2O2 (human TRPV1 [2]; Dose 4000): 79%; % Reduction of Hydrogen Peroxide TRPV1 Activation (human TRPV1 [2]): 79%; % inhibition of TRPV1 activation by 350 nM Capsaicin (human TRPV1 [3]; Dose 4000): 3%
CCOc1nccnc1CC [2-Ethoxy-3-ethylpyrazine] |  |  | 58% | 474 | 14878 |  | 
CCC(C)COC(=O)CC(C)C (stereo not shown) [2-Methylbutyl isovalerate] | 380 | 11278 |  |  |  | 79% | 
CCCCCCCCCC(C)=O [2-undecanone] |  |  |  |  |  |  | Average Ca2+ Counts (human TRPV1 [4]; antagonist 100 μM against 1 mM L-Menthol): 1282.3 Counts; inhibition at 100 µM (human TRPV1 [4]; read-out: % Reduction of L-Menthol TRPV1 Activation): 32.6%; Average Ca++ Counts (human TRPA1 [1]): 4581.0 Counts; Block of hydrogen peroxide activation of TRPA1 (human TRPA1 [1]): Block menthol, H2O2, and AITC on TRPA1; inhibition at 100 µM (human TRPA1 [1]): 56.8%; Block of AITC activation of TRPA1 (human TRPA1 [5]): Block menthol, H2O2, and AITC on TRPA1; Block of L-Menthol activation of TRPA1 (human TRPA1 [6]): Block menthol, H2O2, and AITC on TRPA1
CCCCCC(CC)OC(C)=O (stereo not shown) [3-Octyl Acetate] | 181 | 12109 |  |  |  | 90% | 
CCCCOC(=O)C(C)C [Butyl Isobutyrate] | 774 | 11278 |  |  |  | 58% | 
CC(CC=O)CCCC(C)(C)O (stereo not shown) [Hydroxycitronellal] |  |  | 62% | 627 | 14728 |  | Block of hydrogen peroxide activation of TRPA1 (human TRPA1 [1]; 100 μM antagonist vs 500 μM hydrogen peroxide): BLOCK ONLY H2O2/TRPA1; Average Ca++ Counts (human TRPA1 [1]; [7]): 6313.0 Counts; inhibition at 100 µM (human TRPA1 [1]; [7]): 40.4%
CC/C=C/CC1CCCC1=O (stereo not shown) [Jasminone B] | 903 | 11635 |  |  |  |  | % inhibition of TRPV1 activation by 500 uM H2O2 (human TRPV1 [2]; Dose 4000): 51%; % Reduction of Hydrogen Peroxide TRPV1 Activation (human TRPV1 [2]): 51%; % inhibition of TRPV1 activation by 350 nM Capsaicin (human TRPV1 [3]; Dose 4000): 2%
CC1=CC(=O)C(C(C)C)CC1 [L-Piperiton] |  |  |  | 361 | 13225 |  | % inhibition of TRPV1 activation by 500 uM H2O2 (human TRPV1 [2]; Dose 1000): 58%; % inhibition of TRPV1 activation by 350 nM Capsaicin (human TRPV1 [3]; Dose 1000): 12%
COC(=O)c1ccccc1N(C)C [Methyl N,N-Dimethylanthranilate] |  |  | 60% | 451 | 15329 |  | 
